From EP1143992B1, “THERAPEUTIC COMPOSITIONS CONTAINING GLUTATHIONE ANALOGS” (TELIK, INC., priority 1999, dated 2000)
Where two headings read alike, the source gives them in different places.

Legend:
[1] = Description: The lyophilization cycle involved rapid freezing of the sample (2.5 ml fill of 10 ml vial) to a sample temperature of -50°C, followed by lyophilization at a tray temperature of -35°C for 42 hours to remove primary water, and for 2 hours at 20°C to remove secondary water.
The MLVs may be passed (5-10x) through stacked polycarbonate filters (pore size of 80 nm) using an EXTRUDER (Lipex Biomembranes, Vancouver, Canada).

[2] = test system: circulating neutrophil levels; conditions: normal rats; liposomal formulation of Example 4, 35mg/kg, i.v., 5 daily injections; Figure 2
From the text: Blood samples were taken for measurement of neutrophil levels daily.

[3] = Drug/Lipid 0.25, EPC/EPG (1/1), Sucrose 300 mM
[4] = test system: fluorouracil-induced neutropenia; conditions: rats; fluorouracil 125mg/kg intraperitoneally; liposomal formulation of Example 4, 35mg/kg, 8 daily intravenous injections; Figure 1
Description: Male CD rats (250-300g) were injected intraperitoneally with either the antineoplastic drug, fluorouracil (125mg/kg) or an equivalent volume of its vehicle (saline). […] Rats originally injected with saline rather than fluorouracil received saline intravenously (n = 7). Blood samples were taken for measurement of neutrophil levels prior to the fluorouracil and every 1 to 2 days thereafter for 14 days.

[5] = Particle size of lipid microspheres; assay type: physicochemical; conditions: lipid microspheres after 1.2µm filter, 300 µg/mL
Description: Then 2.21 gm of glycerol and enough distilled water to bring the volume to 100 mL(approximately 90 mL) were added, followed by a rough emulsification by means of a homogenizer. The product is then further emulsified by means of a manton gaulin type homogenizer. […]

Question: Which results are given for `CCOC(=O)C(N)CCC(=O)NC(CSCc1ccccc1)C(=O)N[C@@H](C(=O)OCC)c1ccccc1.Cl` (stereo partly shown) [Compound 9, γ-Glutamyl-S(benzyl)cysteinyl-R-phenyl glycine diethyl ester hydrochloride]?
Answer: Drug (mg/ml) ([1]; ethanol dilution, Drug/Lipid 0.25 wt/wt, EPC, comparative example): 16.2. mg/ml; precipitated form of the drug ([1]; removed by extrusion through 80 nm filters): < 2%; circulating neutrophil levels [2]: increased; Viscosity ([3]; Lyophilization Time 32 hr): Negligible; Viscosity ([3]; Lyophilization Time 40 hr): Negligible; Viscosity ([3]; Lyophilization Time 44 hr): Negligible; Viscosity ([3]; Lyophilization Time 54 hr): Viscous; Viscosity ([3]; Lyophilization Time 59 hr): Very Viscous; recovery from chemotherapy-induced neutropenia [4]: accelerated recovery; particles of final emulsion [5]: approximately 220 nM
